Reference: US20050080113A1, “Medicinal compositions” (priority 2001, published 2005)

Columns and labels:
[1] = system: TNF-α production in THP-1 cells; test: Measurement of inhibitory activity of TNF-α production (LPS-stimulated THP-1 cells, ELISA), Reference Example K 2; assay type: cell-based; details: Homo sapiens, Reference Example H compounds, LPS 5 μg/mL, 4 hours, read-out: IC50 (inhibition of TNF-α production)
Procedure: THP-1 cells cultured in a PRMI 1640 medium (Life Technologies, Inc., USA) containing 1% inactivated fetal bovine serum (Life Technologies, Inc.) and 10 mM HEPES (pH 7.5) were inoculated on a 96 well plate to give 1×10^5 cells/well, then, 1 μL of a sample compound dissolved in DMSO was added. After incubation for 1 hour at 37° C. in a CO2 incubator, LPS (Wako Pure Chemical Industries Ltd.) was added to give a final concentration of 5 μg/mL. After incubation for 4 hours at 37° C. in a CO2 incubator, the supernatant was obtained by centrifugal separation. The TNF-α concentration in the supernatant was measured by ELISA (R&D Systems, Quantikine Kit). The concentration (IC50 value) of a sample compound necessary for inhibiting 50% of TNF-α production was calculated by PRISM 2.01 (GraphPad Software).

[2] = molecular target: T1, human p38 MAP kinase (Homo sapiens, UniProt Q16539); test: Inhibition of active type p38 MAP kinase (32P incorporation into Myelin Basic Protein), Reference Example K 1; assay type: biochemical; details: Reference Example H compounds, 30° C., 60 minutes
T1 construct: made in house; host or cells: Sf-21 insect cells, baculovirus (BAC-HP38 co-infected with BAC-caMKK3)
T1 sequence (Q16539 whole entry): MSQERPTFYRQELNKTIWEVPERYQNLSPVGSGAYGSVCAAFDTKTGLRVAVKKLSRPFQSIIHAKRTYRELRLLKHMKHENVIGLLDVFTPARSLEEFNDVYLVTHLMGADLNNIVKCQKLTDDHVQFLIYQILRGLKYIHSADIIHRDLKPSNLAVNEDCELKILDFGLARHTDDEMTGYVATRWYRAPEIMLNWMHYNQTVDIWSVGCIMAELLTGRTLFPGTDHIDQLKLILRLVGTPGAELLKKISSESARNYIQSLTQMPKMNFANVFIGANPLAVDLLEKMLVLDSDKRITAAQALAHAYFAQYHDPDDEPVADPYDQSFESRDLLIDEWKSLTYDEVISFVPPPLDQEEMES
Procedure: Genetic manipulation methods described below are based on methods described in Maniatis et al., Molecular Cloning, ColdSpring Harbor Laboratory, 1989, and the appended reagent protocol.
(§1) (1) Cloning of Human p38 MAP Kinase Gene and Preparation of Recombinant Baculovirus
Cloning of human p38 MAP kinase gene was conducted by a PCR method using primer set p38 U: 5′-[…] C-3′ [SEQ ID No. 1] and PAG-L: 5′-[…]-3′ [SEQ ID No. 2] synthesized referring to the nucleotide sequence of p38 MAP kinase gene of Han et al., Science 265 (5173), 808 811 (1994), utilizing kidney cDNA (QUICK-Clone cDNA, manufactured by Toyobo Co., Ltd.) as a template.
A PCR reaction was performed according to Hot Start method using AmpliWax PCR Gem 100 (Takara Shuzo Co., Ltd.). For preparing lower layer mixed liquid, 2 μL of 10×LA PCR Buffer, 3 μL of 2.5 mM dNTP solution, each 2.5 μL of 12.5 μM primer solution, and 10 μL of sterile distilled water were mixed. For preparing upper layer mixed liquid, 1 μL of human heart cDNA (1 ng/mL) as a template, 3 μL of 10×LA PCR Buffer, 1 μL of 2.5 mM dNTP solution, 0.5 μL of TaKaRa LA Taq DNA polymerase (Takara Shuzo Co., Ltd.) and 24.5 μL of sterile distilled water were mixed. To the prepared lower mixed liquid was added one AmpliWax PCR Gem 100 (Takara Shuzo Co., Ltd.), treated for 5 minutes at 70° C. and 5 minutes in ice, then, the upper mixed liquid was added, to prepare a reaction solution for PCR. A tube filled with the reaction solution was set on Thermal Cycler (Perkin Elmer), then, treated for 2 minutes at 95° C. Further, a cycle including 15 seconds at 95° C. and 2 minutes at 68° C. was repeated 35 times, then, treated for 8 minutes at 72° C. The resulted PCR product was subjected to agarose gel (1%) electrophoresis, a 1.1 kb DNA fragment containing a p38 MAP kinase gene was recovered from the gel, then, pT7Blue-T vector (Takara Shuzo Co., Ltd.) was inserted to prepare a plasmid pHP38.
4.8 kb XhoI-KpnI fragment of plasmid pFASTBAC1 (CIBCOBRL) and 1.1 kb XhoI-Kpn fragment of the above-mentioned plasmid pHP38 were ligated to construct plasmid pFBHP38.
Plasmid pFBHP38 and BAC-TO-BAC Baculovirus Expression System (GIBCOBRL) were used to prepare virus stock BAC-HP38 of recombinant baculovirus.
(§2) (2) Cloning of Human MKK3 Gene and Preparation of Recombinant Baculovirus
Cloning of human MKK3 gene was conducted by a PCR method using primer set MKK-U: 5′-[…] 3′ [SEQ ID No. 3] and MKK-L: 5′-[…]-3′ [SEQ ID No. 4] synthesized referring to the nucleotide sequence of MKK3 gene of Derijard, B. et al., Science 267 (5198), 682 685 (1995), utilizing kidney cDNA (QUICK-Clone cDNA, manufactured by Toyobo Co., Ltd.) as a template.
A PCR reaction was performed according to Hot Start method using AmpliWax PCR Gem 100 (Takara Shuzo Co., Ltd.). […]

[3] = molecular target: T1, human p38 MAP kinase; test: Measurement of the p38 MAP kinase inhibitory activity, 32P uptake into Myelin Basic Protein (Reference Example F 2); assay type: biochemical; details: active form p38 MAP kinase, 30° C. 60 minutes, read-out: IC50 (p38 MAP kinase inhibitory activity, uptake of 32P into acid insoluble fraction)
Procedure: The genetic manipulations described below were according to the methods described in the book (Maniatis et al., Molecular Cloning, Cold Spring Harbor Laboratory, 1989) or a method described in the protocol attached to the reagent.
as §1
Cloning of human p38 MAP kinase gene was performed by a PCR method using a primer set P38 U: 5′-[…]-3′ [SEQ ID NO:9] and PAG-L: 5′-[…]-3′ [SEQ ID NO:10] made by reference to the base sequence of p38 MAP kinase gene reported by Han et al. (Science 265 (5173), 808 811 (1994)) and employing kidney cDNA (Toyobo, QUICK-Clone cDNA) as a template.
A PCR reaction was performed by a Hot Start method using AmpliWax PCR Gem 100 (Takara Shuzo). As the lower mixed solution, 2 μL 10×LA PCR Buffer, 3 μL 2.5 mM dNTP solution, each 2.5 μL of 12.5 μM primer solution, and 10 μL sterile distilled water were mixed. As the upper mixed solution, 1 μL human cardiac cDNA (1 ng/mL) as a template, 3 μL 10×LA PCR Buffer, 1 μL 2.5 mM dNTP solution, 0.5 μL TaKaRa LA Taq DNA polymerase (Takara Shuzo), and 24.5 μL sterile distilled water were mixed. One AmpliWax PCR Gem 100 (Takara Shuzo) was added to the prepared lower mixed solution to treat at 70° C. for 5 minutes and for 5 minutes in an ice and, thereafter, the upper mixed solution was added to prepare a reaction solution for PCR. A tube containing the reaction solution was set at a thermal cycler (Perkin Elmer), which was treated at 95° C. for 2 minutes. Further, after repeating 35 times a cycle of 15 seconds at 95° C. and 2 minutes at 68° C., treatment was performed at 72° C. for 8 minutes. The resulting PCR product was subjected to agarose gel (1%) electrophoresis, 1.1 kb DNA fragment containing p38 MAP kinase gene was recovered from the gel and, thereafter, which was inserted into pT7Blue-T vector (Takara Shuzo) to make the plasmid pHP38.
The 4.8 kb XhoI-KpnI fragment of the plasmid pFASTBAC1 (CIBCOBRL) and the 1.1 kb XhoI-Kpn fragment of the above plasmid pHP38 were ligated to make the plasmid pFBHP38.
The plasmid pFBHP38 and BAC-TO-BAC Baculovirus Expression System (GIBCOBRL) were used to prepare the recombinant Baculovirus virusstock BAC-HP38.
as §2
Cloning of human MKK3 gene was performed by a PCR method using a primer set MKK-U: 5′-[…]-3′ [SEQ ID NO:11] and MKK-L: 5′-[…]-3′ [SEQ ID NO:12] made by reference to the base sequence of MKK3 gene reported by Derijard, B. et al., Science 267 (5198), 682 685 (1995) and using kidney cDNA (Toyobo, QUICK-Clone cDNA).
A PCR reaction was performed by a Hot Start method using AmpliWax PCR Gem 100 (Takara Shuzo). As the lower mixed solution, 2 μL 10×LA PCR Buffer, 3 μL 2.5 mM dNTP solution, each 2.5 μL of 12.5 μM primer solution, and 10 μL sterile distilled water were mixed. As the upper mixed solution, 1 μL human kidney cDNA (1 ng/mL), 3 μL 10×LA PCR Buffer, 1 μL 2.5 mM dNTP solution, 0.5 μL TaKaRa LA taq DNA polymerase (Takara Shuzo) and 24.5 μL sterile distilled water were mixed. One AmpliWax PCR Gem 100 (Takara Shuzo) was added to the prepared lower mixed solution to treat at 70° C. for 5 minutes and for 5 minutes in ice and, thereafter, the upper mixed solution was added to prepare a reaction solution for PCR. A tube containing the reaction solution was set at a thermal cycler (Perkin Elmer), which was treated at 95° C. for 2 minutes. Further, after repeating 35 times a cycle of 15 seconds at 95° C. and 2 minutes at 68° C., treatment was performed at 72° C. for 8 minutes. The resulting PCR product was subjected to agarose gel (1%) electrophoresis, 1.0 kb DNA fragment containing MKK3 gene was recovered from the gel and, thereafter, which was inserted into pT7Blue-T vector (Takara Shuzo) to make the plasmid pHMKK3. […]

[4] = system: TNF-α production; test: Measurement of inhibiting activity of TNF-α production in LPS-stimulated THP-1 cells, ELISA (Reference Example F 3); assay type: cell-based; details: Homo sapiens, LPS 5 μg/mL, 4 hours, ELISA (R&D System)
Procedure: Measurement of Inhibiting Activity of TNF-α Production
After THP-1 cells which had been cultured in PRMI 1640 medium (manufactured by Life Technologies, Inc.) containing 1% non-activated bovine fetal serum (manufactured by Life Technologies, Inc., U.S.A.) and 10 mM HEPES (pH 7.5) seeded on a 96 well plate to 1×10^5 cells/well, 1 μL test compound dissolved in DMSO was added to there. After incubation at 37° C. for 1 hour in a CO2 incubator, LPS (Wako Pure Chemicals) was added to the final concentration 5 μg/mL. After cultured at 37° C. for 4 hours in a CO2 incubator, the supernatant was obtained by centrifugation. The concentration of TNF-α in the supernatant was measured with ELISA (R&D System, Quantikine Kit). The concentration (IC50 value) necessary for inhibiting TNF-α production by 50% was calculated by PRIMS 2.01 (Graphpad Software).

In the case of `CCc1nc(-c2cccc(Cl)c2)c(-c2ccnc(NC3CCCCC3)c2)s1` [36-10], the melting point is reported as 106 to 107 °C, the IC50 [1] is reported as 0.055 µM and the IC50 [2] is reported as 0.0011 µM.
`CCC(=O)Nc1cc(-c2sc(-c3ccc(S(C)(=O)=O)cc3)nc2-c2cccc(Cl)c2)ccn1` [58-7] showed a melting point of 224 to 225 °C, an IC50 [1] of 0.021 µM and an IC50 [2] of 0.0084 µM.
Molecule `COc1ccc(-c2nc(NC(=O)c3cccnc3)sc2-c2ccnc(NC(=O)c3cccnc3)c2)cc1` [D 3, N-[4-(4-methoxyphenyl)-5-[2-[(3-pyridylcarbonylamino)]-4-pyridyl]-1,3-thiazol-2-yl]nicotinamide] has an IC50 [3] of 0.023 µM and an IC50 [4] of 0.026 µM.
In the case of `COc1ccc(-c2nc(N)sc2-c2ccnc(NC(=O)c3ccccc3)c2)cc1` [D 4, N-[4-[2-amino-4-(4-methoxyphenyl)-1,3-thiazol-5-yl]-2-pyridyl]benzamide], the IC50 [3] is reported as 0.02 µM and the IC50 [4] is reported as 0.014 µM.
`Cc1cc(C)cc(-c2nc(N)sc2-c2ccnc(NCc3ccccc3)c2)c1` [D 6, N-[4-[2-amino-4-(3,5-dimethylphenyl)-1,3-thiazol-5-yl]-2-pyridyl]benzylamine] showed an IC50 [3] of 0.023 µM and an IC50 [4] of 0.14 µM.
`CCc1nc(-c2cccc(Cl)c2)c(-c2ccnc(NC(C)=O)c2)s1` [H 30-2, N-[4-[4-(3-chlorophenyl)-2-ethyl-1,3-thiazol-5-yl]-2-pyridyl]acetamide] showed a melting point of 149 to 150 °C, an IC50 [1] of 0.12 µM and an IC50 [2] of 0.01 µM.
In the case of `Cc1cccc(-c2nc(N)sc2-c2ccnc(NC3CCCCC3)c2)c1` [H 34-2, [5 (2 cyclohexylamino-4-pyridyl)-4 (3 methylphenyl)-1,3thiazol-2 yl]amine], the melting point is reported as 168 to 169 °C, the IC50 [1] is reported as 0.002 µM and the IC50 [2] is reported as 0.0099 µM.
